Test results from the supplement of paper PMC11208160.

Test: recombinant barcode read abundance after kanamycin selection (control-corrected) (log10(CPM+1)); higher = more efficient recombination; sequences stand for … in AGTGCAGAGAAAATCGGCCAGTTTTCTCTGCCTGCAGTCCGCATGCCGT…AGATTTATGCAGCGGACTGCCTTTCTCCCAAAGTGATAAACCGGACAGTATCATGGACCGGTTTTCCCGGTAATCCGTATTTGCAAGGTTGGTTTCACT; site = the 11-nt target
Method in brief: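 Pooled E. coli screen pairing targets with IS621 bridge RNA target-binding loops. Each oligo (promoter, target, barcode, J23119-driven first 104 bridge RNA bases) was Gibson-cloned into a vector with the remaining 73 bp and T7-inducible recombinase, then co-electroporated with a donor plasmid. Two replicates each were plated on chloramphenicol/ampicillin LB agar (control) or chloramphenicol/ampicillin/kanamycin with 0.1 mM IPTG. Recombination efficiency is recombinant-junction barcode counts as CPM, averaged, control-corrected, reported as log10(CPM+1).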
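Note: IS621 recombinase and bridge RNA in Escherichia coli cells.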

Row | Sequence | recombinant barcode read abundance (log10)
1 | GAGACTCCTTGGGTTCTAACCTGTTGCAC (site GAGACTCCTGT) | 1.17
2 | GAGACTCCTTGGGTTCTAACCTGTTGCAG (site GAGACTCCTCT) | 0.956
3 | GAGACTCCTTGGGTTCTAACCTGTTGCAG (site GAGACTCCTGT) | 0.509
4 | GAGACTCCTTGGGTTCTAACCTGTTGCTA (site GAGACTCCTTA) | 0.392
5 | GAGACTCCTTGGGTTCTAACCTGTTGCTA (site GCGACTCCTTA) | 0.0503
6 | GAGACTGCTTGGGTTCTAACCTGTTGCCT (site GAAACTGCTAG) | 0.291
7 | GAGACTGCTTGGGTTCTAACCTGTTGCCT (site GACACTGCTAG) | 0.068
8 | GAGACTGCTTGGGTTCTAACCTGTTGCCT (site GAGACTGCTAG) | 0.865
9 | GAGACTGCTTGGGTTCTAACCTGTTGCCT (site GATACTGCTAG) | 0.0802
10 | GAGAGCACTTGGGTTCTAACCTGTTGCCA (site GAGAGCACTTG) | 1.23
11 | GAGAGCACTTGGGTTCTAACCTGTTGCCA (site GAGGGCACTTG) | 0.329
12 | GAGAGGACTTGGGTTCTAACCTGTTGCTT (site GAGAGGACTAA) | 1.86
13 | GAGAGGACTTGGGTTCTAACCTGTTGCTT (site GATAGAACTAA) | 0.0753
14 | GAGATATCTTGGGTTCTAACCTGTTGCCT (site GAGAAATCTAG) | 0.223
15 | GAGATATCTTGGGTTCTAACCTGTTGCCT (site GAGACATCTAG) | 0.339
16 | GAGATATCTTGGGTTCTAACCTGTTGCCT (site GAGAGATCTAG) | 0.217
17 | GAGATATCTTGGGTTCTAACCTGTTGCCT (site GAGATATCTAG) | 2.07
18 | GAGATCCCTTGGGTTCTAACCTGTTGCCA (site GAGATCCCTTG) | 1.22
19 | GAGATCCCTTGGGTTCTAACCTGTTGCCA (site GGGGTCCCTTG) | 0.235
20 | GAGATCCCTTGGGTTCTAACCTGTTGCTA (site GAGATCCCTCA) | 0.427

Row | Sequence | recombinant barcode read abundance (log10)
21 | GAGATCCCTTGGGTTCTAACCTGTTGCTA (site GAGATCCCTTA) | 1.93
22 | GAGATCCCTTGGGTTCTAACCTGTTGCTG (site GAGATCCCTCA) | 2.37
23 | GAGATCCCTTGGGTTCTAACCTGTTGCTG (site GAGATCCCTTA) | 0.188
24 | GAGATGACTTGGGTTCTAACCTGTTGCGG (site GAGACGACTCG) | 0.0565
25 | GAGATGACTTGGGTTCTAACCTGTTGCGG (site GAGATGACTCC) | 2.29
26 | GAGCAACCTTGGGTTCTAACCTGTTGCCG (site GAGCAACCTCG) | 1.07
27 | GAGCAACCTTGGGTTCTAACCTGTTGCCG (site GAGCCACCTTG) | 0.017
28 | GAGCAGACTTGGGTTCTAACCTGTTGCCT (site GAGCAGACTAG) | 0.931
29 | GAGCAGACTTGGGTTCTAACCTGTTGCCT (site GAGCCGACTAG) | 0.146
30 | GAGCAGACTTGGGTTCTAACCTGTTGCCT (site GAGCGGACTAG) | 0.235
31 | GAGCAGACTTGGGTTCTAACCTGTTGCCT (site GAGCTGACTAG) | 0.631
32 | GAGCCACCTTGGGTTCTAACCTGTTGCCA (site GAGCAACCTCG) | 0.0457
33 | GAGCCACCTTGGGTTCTAACCTGTTGCCA (site GAGCCACCTTG) | 1.02
34 | GAGCGAGCTTGGGTTCTAACCTGTTGCCG (site GAGCGAGCTCA) | 0.199
35 | GAGCGAGCTTGGGTTCTAACCTGTTGCCG (site GAGCGAGCTCC) | 0.582
36 | GAGCGAGCTTGGGTTCTAACCTGTTGCCG (site GAGCGAGCTCG) | 1.11
37 | GAGCGAGCTTGGGTTCTAACCTGTTGCCG (site GAGCGAGCTCT) | 0.308
38 | GAGCGATCTTGGGTTCTAACCTGTTGCGT (site GAGCGATCTAC) | 1.85
39 | GAGCGATCTTGGGTTCTAACCTGTTGCGT (site GAGTGAGCTAC) | 0.0311
40 | GAGCGCTCTTGGGTTCTAACCTGTTGCCT (site GAGCGCTCTAG) | 1.48

Row | Sequence | recombinant barcode read abundance (log10)
41 | GAGCGCTCTTGGGTTCTAACCTGTTGCCT (site GAGTGCTCTAC) | 0.0357
42 | GAGCGCTCTTGGGTTCTAACCTGTTGCTG (site GAGCGCTCTAA) | 0.0574
43 | GAGCGCTCTTGGGTTCTAACCTGTTGCTG (site GAGCGCTCTCA) | 1.05
44 | GAGCGCTCTTGGGTTCTAACCTGTTGCTG (site GAGCGCTCTGA) | 0.207
45 | GAGCGCTCTTGGGTTCTAACCTGTTGCTG (site GAGCGCTCTTA) | 0.0132
46 | GAGCGGACTTGGGTTCTAACCTGTTGCTA (site GAGCGAGCTTA) | 0.0384
47 | GAGCGGACTTGGGTTCTAACCTGTTGCTA (site GAGCGGACTTA) | 1.83
48 | GAGCGGCCTTGGGTTCTAACCTGTTGCAG (site ATTTAAGCTAG) | 0.224
49 | GAGCGGCCTTGGGTTCTAACCTGTTGCAG (site GAGCGGCCTCT) | 1.72
50 | GAGCTAGCTTGGGTTCTAACCTGTTGCGC (site GAGCTAGCTAC) | 0.109
51 | GAGCTAGCTTGGGTTCTAACCTGTTGCGC (site GAGCTAGCTGC) | 2.29
52 | GAGCTGCCTTGGGTTCTAACCTGTTGCCA (site AGCTAATCTAA) | 0.274
53 | GAGCTGCCTTGGGTTCTAACCTGTTGCCA (site GAGCTGCCTTG) | 1.66
54 | GAGCTTACTTGGGTTCTAACCTGTTGCCT (site GAGCTTACTAG) | 0.618
55 | GAGCTTACTTGGGTTCTAACCTGTTGCCT (site GCGCTTACTAG) | 0.0105
56 | GAGCTTACTTGGGTTCTAACCTGTTGCCT (site GGGCTTACTAG) | 0.299
57 | GAGCTTACTTGGGTTCTAACCTGTTGCCT (site GTGCTTACTAG) | 0.158
58 | GAGGAACCTTGGGTTCTAACCTGTTGCCT (site AAGGAACCTAG) | 1.57
59 | GAGGAACCTTGGGTTCTAACCTGTTGCCT (site CAGGAACCTAG) | 1.28
